According to BigSolDB 2.1:

C[C@H]1[C@H](C)CC[C@]2(C(=O)O)CC[C@]3(C)C(=CC[C@@H]4[C@@]5(C)CC[C@H](O)C(C)(C)[C@@H]5CC[C@]43C)[C@H]12
solubility (mole fraction)
Conditions	278.15 K	283.15 K	288.15 K	293.15 K	298.15 K	303.15 K	308.15 K	313.15 K	318.15 K	323.15 K
in acetone	0.000384	0.000473	0.00058	0.000707	0.000836	0.001	0.00119	0.00139	0.00162	0.00187
in methanol	0.000447	0.000505	0.000579	0.000662	0.000746	0.000842	0.000955	0.00107	0.00121	0.00135
in water	1.16e-07	1.34e-07	1.55e-07	1.76e-07	2.02e-07	2.28e-07	2.57e-07	2.88e-07	3.18e-07	3.54e-07
